We go through one compound from US20220142159A1, “A METHOD AND COMPOSITION FOR INSECT REPELLENCY USING AVERSIVE AGENT” (UPL LTD, priority 2019, published 2022).

One series relates to Nilgai, deer. The series can be described thus: Observed repellence of vermin mammal species. It counts as in vivo. The following applies: because of its bitterness.
The test system of the next series is average person. The conditions noted are these: cited from earlier work.
For series [1] the following is noted: in vivo; cited from earlier work.

Turning to `CC[N+](CC)(CC(=O)Nc1c(C)cccc1C)Cc1ccccc1.O=C([O-])c1ccccc1` [Denatonium benzoate, phenylmethyl-[2-[(2,6-dimethylphenyl)amino]-2-oxoethyl]-diethylammonium benzoate], in the series with Nilgai, deer, the “repellence of vermin mammals” value is listed as “effectively repelled”. In addition, the “generally recognized bitter taste” value in the series with average person (level of recognised bitter taste) is on record as 50 ppb. Also, the “can be detected by the average person” value in the series on average person (taste detection level) is 10 ppb. Also, the “human safety in clinical trials” value in series [1] is on record as “extremely human safe”.
